Legend:
[1] = target: C-C chemokine receptor type 2 (Homo sapiens, UniProt P41597); assay type: cell membranes, CHO-K1, Membrane; details: cho-k1; further: in other assays of this panel Not Active means under 50% inhibition at 10 µM
[2] = target: T1, Muscarinic acetylcholine receptor M2 (Homo sapiens, UniProt P08172); assay type: cell membranes, CHO-K1, Membrane; details: cho-k1; further: in other assays of this panel Not Active means under 50% inhibition at 10 µM
T1 sequence (P08172 whole entry): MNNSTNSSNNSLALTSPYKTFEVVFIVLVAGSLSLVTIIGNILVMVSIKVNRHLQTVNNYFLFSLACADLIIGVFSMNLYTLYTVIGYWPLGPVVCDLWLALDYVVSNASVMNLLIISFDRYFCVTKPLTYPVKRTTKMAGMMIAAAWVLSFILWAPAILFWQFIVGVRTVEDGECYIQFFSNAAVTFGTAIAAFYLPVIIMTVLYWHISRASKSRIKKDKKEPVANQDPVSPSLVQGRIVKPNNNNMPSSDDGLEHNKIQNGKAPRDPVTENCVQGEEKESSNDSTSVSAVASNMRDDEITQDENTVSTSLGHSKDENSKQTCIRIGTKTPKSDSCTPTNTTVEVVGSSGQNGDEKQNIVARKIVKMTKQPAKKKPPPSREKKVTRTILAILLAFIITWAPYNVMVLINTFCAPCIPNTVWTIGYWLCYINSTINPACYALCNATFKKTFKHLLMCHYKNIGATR

[3] = DRUGMATRIX: Tumor Necrosis Factor (TNF), Non-Selective radioligand binding (ligand: [125I] TNF-alpha); assay type: cell membranes, Membrane; details: u-937; Not Active = under 50% inhibition at 10 µM
Adenosine receptor A3 = target: T2, Adenosine receptor A3 (Homo sapiens, UniProt P0DMS8); assay type: cell membranes, CHO-K1, Membrane; details: cho-k1;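 further: radioligand binding assay with AB-MECA serving as the labeled ligand; in other assays of this panel Not Active means under 50% inhibition at 10 µM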
T2 sequence (P0DMS8 whole entry): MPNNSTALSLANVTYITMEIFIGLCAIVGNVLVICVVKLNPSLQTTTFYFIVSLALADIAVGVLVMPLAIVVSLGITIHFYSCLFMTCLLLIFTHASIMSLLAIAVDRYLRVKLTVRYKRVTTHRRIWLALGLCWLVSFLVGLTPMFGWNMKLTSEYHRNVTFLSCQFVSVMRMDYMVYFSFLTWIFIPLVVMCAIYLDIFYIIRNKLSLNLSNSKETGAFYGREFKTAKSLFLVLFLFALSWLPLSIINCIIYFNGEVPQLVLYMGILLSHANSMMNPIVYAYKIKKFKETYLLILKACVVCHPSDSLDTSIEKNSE

[4] = DRUGMATRIX: Serotonin (5-Hydroxytryptamine) 5-HT3 radioligand binding (ligand: [3H] GR-65630); assay type: cell membranes, Membrane; details: hek293; Not Active = under 50% inhibition at 10 µM
[5] = target: cGMP-specific 3',5'-cyclic phosphodiesterase (Homo sapiens, UniProt O76074); assay: DRUGMATRIX: Phosphodiesterase PDE5 enzyme inhibition (substrate: [3H]cGMP + cGMP); assay type: tissue-based; details: platelet; Not Active = under 50% inhibition at 10 µM
Cytochrome P450 2E1 = Cytochrome P450 2E1 (Homo sapiens, UniProt P05181); details: bti-tn-5b1-4; further: in other assays of this panel Not Active means under 50% inhibition at 10 µM
Cytochrome P450 2E1, sequence (P05181 whole entry): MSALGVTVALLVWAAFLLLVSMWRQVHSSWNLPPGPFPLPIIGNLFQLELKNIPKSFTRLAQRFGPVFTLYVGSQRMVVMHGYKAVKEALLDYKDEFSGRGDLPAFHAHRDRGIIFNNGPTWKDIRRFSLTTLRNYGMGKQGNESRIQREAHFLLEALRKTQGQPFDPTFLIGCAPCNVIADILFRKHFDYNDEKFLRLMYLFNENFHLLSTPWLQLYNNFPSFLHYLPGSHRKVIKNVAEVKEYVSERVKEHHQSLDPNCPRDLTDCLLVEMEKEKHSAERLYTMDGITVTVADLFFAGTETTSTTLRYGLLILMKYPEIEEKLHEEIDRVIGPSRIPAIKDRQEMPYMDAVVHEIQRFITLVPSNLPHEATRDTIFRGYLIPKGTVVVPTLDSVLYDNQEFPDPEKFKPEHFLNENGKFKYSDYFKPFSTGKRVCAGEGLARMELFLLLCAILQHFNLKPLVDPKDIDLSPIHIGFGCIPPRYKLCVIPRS

C-C chemokine receptor type 2, sequence (P41597 whole entry): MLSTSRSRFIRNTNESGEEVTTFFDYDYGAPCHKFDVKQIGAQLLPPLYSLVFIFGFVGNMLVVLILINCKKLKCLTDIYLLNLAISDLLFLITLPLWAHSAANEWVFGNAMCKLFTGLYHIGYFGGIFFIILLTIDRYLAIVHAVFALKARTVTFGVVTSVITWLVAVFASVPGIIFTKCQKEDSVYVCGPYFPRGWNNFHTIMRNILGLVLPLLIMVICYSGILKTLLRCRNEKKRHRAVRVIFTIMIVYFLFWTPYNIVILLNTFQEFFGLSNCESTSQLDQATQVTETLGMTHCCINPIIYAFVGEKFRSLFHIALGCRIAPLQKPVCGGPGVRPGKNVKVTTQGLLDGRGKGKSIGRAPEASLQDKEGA

OCCN1CCN(CCCN2c3ccccc3Sc3ccc(Cl)cc32)CC1 [PERPHENAZINE]
Not Active: IC50 [1] | IC50 [2] | IC50 [3] | Ki [3] | IC50 (Adenosine receptor A3) | IC50 [4] | Ki [4] | IC50 [5] | IC50 (Cytochrome P450 2E1) | Ki (Cytochrome P450 2E1)

CCCCC1C(=O)N(c2ccccc2)N(c2ccccc2)C1=O [PHENYLBUTAZONE]
Not Active: IC50 [1] | IC50 [2] | IC50 [3] | Ki [3] | IC50 (Adenosine receptor A3) | IC50 [4] | Ki [4] | IC50 [5] | IC50 (Cytochrome P450 2E1) | Ki (Cytochrome P450 2E1)

Cc1cccc(Nc2cc(Cl)nc(SCC(=O)O)n2)c1C [PIRINIXIC ACID]
Not Active: IC50 [1] | IC50 [2] | IC50 [3] | Ki [3] | IC50 (Adenosine receptor A3) | IC50 [4] | Ki [4] | IC50 [5] | IC50 (Cytochrome P450 2E1) | Ki (Cytochrome P450 2E1)

CC[C@H](C)C(=O)O[C@H]1C[C@H](O)C=C2C=C[C@H](C)[C@H](CC[C@@H](O)C[C@@H](O)CC(=O)O)[C@H]21 [PRAVASTATIN]
Not Active: IC50 [1] | IC50 [2] | IC50 [3] | Ki [3] | IC50 (Adenosine receptor A3) | IC50 [4] | Ki [4] | IC50 [5] | IC50 (Cytochrome P450 2E1) | Ki (Cytochrome P450 2E1)

CC(C)(Sc1cc(C(C)(C)C)c(O)c(C(C)(C)C)c1)Sc1cc(C(C)(C)C)c(O)c(C(C)(C)C)c1 [PROBUCOL]
Not Active: IC50 [1] | IC50 [2] | IC50 [3] | Ki [3] | IC50 (Adenosine receptor A3) | IC50 [4] | Ki [4] | IC50 [5] | IC50 (Cytochrome P450 2E1) | Ki (Cytochrome P450 2E1)

COBALT(II) ACETYLACETONATE
Not Active: IC50 [1] | Ki [1] | IC50 [2] | Ki [2] | IC50 [3] | Ki [3] | IC50 (Adenosine receptor A3) | Ki (Adenosine receptor A3) | IC50 [4] | Ki [4] | IC50 [5] | Ki [5] | IC50 (Cytochrome P450 2E1) | Ki (Cytochrome P450 2E1)

INSULIN HUMAN
Not Active: IC50 [1] | Ki [1] | IC50 [2] | Ki [2] | IC50 [3] | Ki [3] | IC50 (Adenosine receptor A3) | Ki (Adenosine receptor A3) | IC50 [4] | Ki [4] | IC50 [5] | Ki [5] | IC50 (Cytochrome P450 2E1) | Ki (Cytochrome P450 2E1)

POLYVINYL ALCOHOL
Not Active: IC50 [1] | Ki [1] | IC50 [2] | Ki [2] | IC50 [3] | Ki [3] | IC50 (Adenosine receptor A3) | Ki (Adenosine receptor A3) | IC50 [4] | Ki [4] | IC50 [5] | Ki [5] | IC50 (Cytochrome P450 2E1) | Ki (Cytochrome P450 2E1)

Reference: ChEMBL document CHEMBL1909046, “DrugMatrix in vitro pharmacology data”
